Test results from the supplement of paper PMC11451515.

Test system: NOMO1
Assay: cell viability relative to DMSO control; higher = less cytotoxic
Conditions: 48 h
Method in brief: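 Library compounds in DMSO were pin-dosed in an 11-point threefold series (47 μM to 0.79 nM) onto leukemia cells in 1536-well plates (5 μl). Plates held 500 cells/well of NOMO1 or SEM or 1000 cells/well of P12-Ichikawa, each adapted for at least four passages in each medium. Luminescence was read with CellTiter-Glo One after 48 h at 37°C. Viability means the per-plate percentage relative to DMSO wells, using cell-free wells as background.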

[1] = HPLM + 10% dialyzed FBS, 0.000781 µM
[2] = HPLM + 10% dialyzed FBS, 0.00234 µM
[3] = HPLM + 10% dialyzed FBS, 0.00702 µM
[4] = HPLM + 10% dialyzed FBS, 0.0211 µM
[5] = HPLM + 10% dialyzed FBS, 0.0632 µM
[6] = HPLM + 10% dialyzed FBS, 0.19 µM
[7] = HPLM + 10% dialyzed FBS, 0.569 µM
[8] = HPLM + 10% dialyzed FBS, 1.71 µM
[9] = HPLM + 10% dialyzed FBS, 5.12 µM
[10] = HPLM + 10% dialyzed FBS, 15.4 µM
[11] = HPLM + 10% dialyzed FBS, 46.1 µM
[12] = RPMI 5 mM glucose + 10% FBS, 0.000781 µM
[13] = RPMI 5 mM glucose + 10% FBS, 0.00234 µM
[14] = RPMI 5 mM glucose + 10% FBS, 0.00702 µM
[15] = RPMI 5 mM glucose + 10% FBS, 0.0211 µM
[16] = RPMI 5 mM glucose + 10% FBS, 0.0632 µM
[17] = RPMI 5 mM glucose + 10% FBS, 0.19 µM
[18] = RPMI 5 mM glucose + 10% FBS, 0.569 µM
[19] = RPMI 5 mM glucose + 10% FBS, 1.71 µM
[20] = RPMI 5 mM glucose + 10% FBS, 5.12 µM
[21] = RPMI 5 mM glucose + 10% FBS, 15.4 µM
[22] = RPMI 5 mM glucose + 10% FBS, 46.1 µM
[23] = RPMI 5 mM glucose + 10% dialyzed FBS, 0.000781 µM
[24] = RPMI 5 mM glucose + 10% dialyzed FBS, 0.00234 µM
[25] = RPMI 5 mM glucose + 10% dialyzed FBS, 0.00702 µM
[26] = RPMI 5 mM glucose + 10% dialyzed FBS, 0.0211 µM
[27] = RPMI 5 mM glucose + 10% dialyzed FBS, 0.0632 µM
[28] = RPMI 5 mM glucose + 10% dialyzed FBS, 0.19 µM
[29] = RPMI 5 mM glucose + 10% dialyzed FBS, 0.569 µM
[30] = RPMI 5 mM glucose + 10% dialyzed FBS, 1.71 µM
[31] = RPMI 5 mM glucose + 10% dialyzed FBS, 5.12 µM
[32] = RPMI 5 mM glucose + 10% dialyzed FBS, 15.4 µM
[33] = RPMI 5 mM glucose + 10% dialyzed FBS, 46.1 µM

Structure (SMILES)	cell viability [1] [%]	cell viability [2] [%]	cell viability [3] [%]	cell viability [4] [%]	cell viability [5] [%]	cell viability [6] [%]	cell viability [7] [%]	cell viability [8] [%]	cell viability [9] [%]	cell viability [10] [%]	cell viability [11] [%]	cell viability [12] [%]	cell viability [13] [%]	cell viability [14] [%]	cell viability [15] [%]	cell viability [16] [%]	cell viability [17] [%]	cell viability [18] [%]	cell viability [19] [%]	cell viability [20] [%]	cell viability [21] [%]	cell viability [22] [%]	cell viability [23] [%]	cell viability [24] [%]	cell viability [25] [%]	cell viability [26] [%]	cell viability [27] [%]	cell viability [28] [%]	cell viability [29] [%]	cell viability [30] [%]	cell viability [31] [%]	cell viability [32] [%]	cell viability [33] [%]
CC[C@H]1CN2CCc3cc(OC)c(OC)cc3[C@@H]2C[C@@H]1C[C@H]1NCCc2cc(OC)c(OC)cc21	95.5	105	101	107	104	98.5	54.7	22.7	8.84	10.8	7.47	103	127	122	109	121	111	50.4	27	11.4	9.75	8.48	106	102	98.3	123	118	109	47.5	27.8	14.9	9.41	8.82
N#Cc1ccc(NC(=O)Nc2ccccc2Br)c2nn[nH]c12	–	–	–	–	–	–	–	–	–	–	–	101	122	102	107	117	119	122	114	107	120	119	94.1	106	106	105	101	113	123	109	105	101	115
CCCCCCCCCCCC/1=C(O)/C(=O)/C=C(O)\C1=O	112	116	142	127	154	151	51.1	39.4	40.9	35.5	28.6	–	–	–	–	–	–	–	–	–	–	–	–	–	–	–	–	–	–	–	–	–	–
C[N+]1(C)[C@@H]2CC(OC(=O)C(O)(c3cccs3)c3cccs3)C[C@H]1[C@@H]1O[C@@H]12 (some centres undefined)	109	113	117	126	107	120	128	113	105	110	102	101	87.9	88.8	116	102	100	92.2	87.8	95.6	94.4	107	90.3	105	104	106	115	94.9	106	97.3	99.4	99	99.9
Cc1ccc(/C=N/NC(=O)c2ccccc2Oc2ccccc2)o1	102	100	104	97.7	101	102	104	91.3	98	81.5	69.6	102	96.4	97.2	88.7	86.7	91.2	88	80.4	83.5	83.3	80.9	98.9	96.3	95.1	89.4	113	101	95.6	96.3	85.9	96.9	86.3
NC(CO)C(=O)NNCc1ccc(O)c(O)c1O (centres undefined)	96.1	104	106	93.5	107	107	91.6	88.1	90.6	89	77.2	85.6	101	96.3	95.9	94.4	94.1	89.4	85	84.3	83.7	82.9	89.4	102	107	90.8	98.8	102	91.9	90	96	92.7	82.6
C1COC(NC(C2CC2)C2CC2)=N1	73.1	94	93	90.6	92.3	83.5	97.3	95.5	94.8	96.3	64.8	75.3	92.5	79.2	87.6	89.7	90.8	89.5	80.1	90.7	91.1	84.5	79.2	86.1	83.9	85	86.4	94.1	97.6	81.4	82.7	89.2	73
Cc1cnc(Nc2ccc(N3CCN(C)CC3)cc2)nc1Nc1cccc([S+](=O)([O-])NC(C)(C)C)c1	122	117	115	104	122	120	95.7	80.2	65.8	45.5	5.81	100	108	99.1	98.6	101	102	102	87.6	77.8	44.6	15.2	112	113	107	111	110	94.2	101	95.8	74.6	56.8	21.5
CCCCCN(CCC12CC3CC(CC(C3)C1)C2)C(=O)NCCCc1ccncc1	111	120	116	114	115	109	108	93.7	111	112	97.3	98.2	110	107	110	116	113	97.8	113	96.5	107	98.4	104	102	119	120	116	107	116	111	116	94.1	99.1
COC(=O)C/1=C(C)/N/C(=C(\C1C2=CC(=CC=C2)[N+]([O-])=O)C(=O)OCCCN3CCC(CC3)(C4=CC=CC=C4)C5=CC=CC=C5)C (centres undefined)	117	114	104	104	108	114	107	107	100	102	87.1	101	99.2	93	92.4	97.7	93.5	88.3	90.7	83.3	95.3	81.8	107	93.8	95.5	97.1	107	109	101	94.4	91.2	90.5	98.7
C=CC(=O)Nc1ccc2ncnc(Nc3ccc(OCc4cccc(F)c4)c(Cl)c3)c2c1	82.4	93.3	99.9	96.7	105	99.4	98.1	72.4	22.2	17.1	12.6	92.6	91.8	114	115	107	95.8	101	93.3	13.6	14.7	9.53	92.9	85.7	93.5	91.3	104	92.6	93	94	21.4	18.3	11.8
CC1=C(/C=C/C(C)=C/C=C/C(C)=C/C(=O)O)C(C)(C)CCC1	106	106	144	126	114	127	110	104	98	84.3	80.3	128	124	114	111	118	122	128	110	94	99.1	68.4	–	–	–	–	–	–	–	–	–	–	–
Oc1ccc([C@@H]2Oc3ccc(O)cc3[C@@H]3CCC[C@@H]32)cc1	92.1	93.1	95.1	102	98	89.3	90.5	94.2	79.3	62	31.8	93.3	105	97.5	88.1	87.3	100	99.9	89.7	81.8	77	28.8	93.8	92.1	97.7	90.7	90.8	94.1	90.7	87.4	83.2	63.7	25.6
C[N]1C=C(C=N1)C2=CC=C3N=CC\4=C(N(C(=O)\C=C4)C5=CC6=C(CCN6C(=O)C=C)C=C5)C3=C2	–	–	–	–	–	–	–	–	–	–	–	100	104	108	95.2	102	109	95.7	88.8	69.3	13.5	9.25	105	108	109	119	97.2	107	96	90.6	47.4	6.23	5.9
Cc1ccc([S+](=O)([O-])Nc2cc(Cl)ccc2C(=O)Nc2nc(-c3ccccc3)cs2)cc1	122	117	129	118	121	124	128	119	103	119	9.35	–	–	–	–	–	–	–	–	–	–	–	–	–	–	–	–	–	–	–	–	–	–
Oc1ccc(-c2ccc(-c3cc(Nc4cccc(CNC5CC5)c4)[nH]n3)cc2)c(O)c1	93.9	104	108	116	127	116	102	93.4	41.4	40	60.6	104	99	103	97.4	115	109	114	96.7	49.5	27.8	30.8	99.3	94.4	106	109	107	102	119	107	71.1	26	31.1
N#Cc1ccnc(N2C(=O)CC[C@H]2C(=O)N(c2cncc(F)c2)[C@H](C(=O)NC2CC(F)(F)C2)c2ccccc2Cl)c1	90.6	92.3	96.6	114	101	115	67.7	49	19.6	26.2	30.7	93.2	95.6	116	95.1	90.1	92	94.6	79.2	16.8	16.5	14.5	97.2	97.1	96.4	101	97.6	90.7	94.8	88.2	42.2	32.1	18.8
